From patent US5004690A, “Ascorbic acid intermediates and process enzymes” (Genetech, Inc., priority 1989, dated 1991)
Like-named read-outs stand apart in the source and are kept apart here.

Target: T1, 2,5-DKG reductase (Corynebacterium sp., UniProt P06632)
T1 construct: resuspension in 650 ml Tris buffer containing 2 mg/ml lyozyme to release intracellular proteins; endogenous in cells; host or cells: Corynebacterium sp; ATCC 31090 (enzyme purified in house from the cell paste)
Test: 2,5-DKG reductase assay: kinetic parameters, substrate specificity, cofactor requirements, pH optimum
Format: biochemical, Corynebacterium sp. ATCC 31090
Conditions: sodium phosphate buffer 150 mM, pH 6.4, 25° C., enzyme 10 μg, read-out: Michaelis constants (Km)
Excerpt: The following assay conditions were used to determine kinetic parameters: […]

T1 sequence (P06632 whole entry): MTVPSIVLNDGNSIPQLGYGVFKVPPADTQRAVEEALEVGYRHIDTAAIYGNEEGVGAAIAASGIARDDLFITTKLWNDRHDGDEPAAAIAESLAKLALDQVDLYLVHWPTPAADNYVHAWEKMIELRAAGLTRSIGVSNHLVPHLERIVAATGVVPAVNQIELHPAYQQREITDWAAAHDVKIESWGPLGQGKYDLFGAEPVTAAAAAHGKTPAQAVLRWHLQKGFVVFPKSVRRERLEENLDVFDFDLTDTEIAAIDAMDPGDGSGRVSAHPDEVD

O=C(O)C(=O)[C@@H](O)[C@H](O)C(=O)CO [2,5-DKG, 2,5-diketogluconic acid]
Km (2,5-DKG 0.43-43 mM): 15.5 mM

NC(=O)C1=CN([C@@H]2O[C@H](COP(=O)(O)OP(=O)(O)OC[C@H]3O[C@@H](n4cnc5c(N)ncnc54)[C@H](OP(=O)(O)O)[C@@H]3O)[C@@H](O)[C@H]2O)C=CC1 [NADPH]
Km (NADPH 11-300 μM): 0.0337 mM
